From patent publication US11098040B2, “Compounds and methods of use” (Ferro Therapeutics, Inc., priority 2018, dated 2021) come the findings set out here.

pIC50: −log10 of the molar value. Read-outs that look alike come from different tables or passages of the source.

One experiment relates to 786-O. Briefly: Cell proliferation (Alamar Blue) assay, 786-O renal cell carcinoma, with/without ferrostatin. Format: cell-based. Conditions: Homo sapiens; for pIC50: 786-0, Cell Line 786-O, read-out: IC50; for IC50: 786-0, 24 h, Alamar Blue, 24 h. Summed up:
(§1)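 Cells seeded at 5000/well, 16-24 h, then exposed 24 h at 37° C to compound, 10-0.0005 μM in 3-fold dilutions, 1% DMSO final. Alamar Blue fluorescence (ex 540/em 590 nm) read after 1.5 h; IC50 from variable-slope sigmoidal fit.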

The subject of another experiment is SJSA-1. Kind of experiment: Cell proliferation (Alamar Blue) assay, SJSA-1 osteosarcoma, with/without ferrostatin. Format: cell-based, human. Conditions: Homo sapiens; for pIC50: SJSA-1, Cell Line SJSA-1, read-out: IC50; for IC50: SJSA-1, 24 h, Alamar Blue, 24 h. Summed up: as §1
In another experiment the test system is A431. Briefly: Cell proliferation (Alamar Blue) assay, A431. Format: cell-based. Conditions: Homo sapiens, A-431; Cell Line A431. Here is the method:
Cells (SJSA-1, 786-O and A431) were seeded (5000 cells/100 μL/well) in 96-well tissue culture plate and incubated at 37° C./5% CO2 for 16-24 hours. The cells were then treated with compounds (25 μL of 5×). The compound concentrations were 10-0.0005 μM prepared in 3-fold serial dilutions with final DMSO concentration of 1%. The plates were then incubated for 24 h at 37° C./5% CO2 in a moist environment. Then Alamar Blue™ reagent (final concentration 1×-12.5 μL) was added to each well and incubated for 1.5 hours at 37° C./5% CO2. The plates were read on fluorescence reader at 540 nm excitation and 590 nm emission wavelengths. The IC50 values were subsequently determined using a sigmoidal dose-response curve (variable slope) in GraphPad Prism® 5 software.
The cell proliferation assays for the compounds shown Table 25 was performed according to the protocols described herein, including Examples 4 and 6.

[1] abbreviates: 2 μM ferrostatin, read-out: 786-O (IC50, μM) 2 μM Ferrostatin.
Where [2] appears, read: without ferrostatin, read-out: 786-O (IC50, μM) Without Ferrostatin.
Where [3] appears, read: 2 μM ferrostatin, read-out: SJSA-1 (IC50, μM) 2 μM Ferrostatin.
Setting [4] is: without ferrostatin, read-out: SJSA-1 (IC50, μM) Without Ferrostatin.

On to `Cc1cc(N2CCOCC2)ccc1[C@@H]1c2[nH]c3ccccc3c2C[C@H](C)N1C(=O)CCl` [Compound 128, 2-chloro-1-((1R,3S)-3-methyl-1-(2-methyl-4-morpholinophenyl)-1,3,4,9-tetrahydro-2H-pyrido[3,4-b]indol-2-yl)ethan-1-one], for which the pIC50 in the experiment with 786-O is 6.73; with SJSA-1, 6.74; in the experiment on A431 it was < 5.00.

As to `C[C@H]1Cc2c([nH]c3ccccc23)[C@@H](c2ccc(N3CCOCC3)cc2F)N1C(=O)CCl` [Compound 129], the pIC50 was 5.38 in the experiment on 786-O, 5.36 in the experiment with SJSA-1 and 5.36 in the experiment with A431.

On to `C[C@H]1Cc2c([nH]c3ccccc23)[C@H](c2ccc(CN3CCOCC3)cc2)N1C(=O)CCl` [Compound 132], for which the pIC50 is 5.42 in the experiment with 786-O, 5.17 with SJSA-1 and 5.22 with A431.

Turning to `C#CC(=O)N1[C@@H](CCCC)Cc2c([nH]c3ccc(F)cc23)[C@@H]1c1ccc(S(=O)(=O)NC2CCC2)cc1` [Compound 143, 4-((1S,3S)-3-butyl-6-fluoro-2-propioloyl-2,3,4,9-tetrahydro-1H-pyrido[3,4-b]indol-1-yl)-N-cyclobutylbenzenesulfonamide], the results for the pIC50 with 786-O, with SJSA-1 and with A431 were 8.05, 8.05 and 5.57, respectively.

For `C#CC(=O)N1[C@@H](COC)Cc2c([nH]c3ccccc23)[C@@H]1c1ccc(S(=O)(=O)NC2CC2)cc1F` [Compound 144], the pIC50 was 8.15 with 786-O, 7.60 in the experiment with SJSA-1 and 5.46 with A431.

Take `CCCC[C@H]1Cc2c([nH]c3ccc(F)cc23)[C@H](c2ccc(S(=O)(=O)NC3CCC3)cc2)N1C(=O)CCl` [Compound 145, 4-((1S,3S)-3-butyl-2-(2-chloroacetyl)-6-fluoro-2,3,4,9-tetrahydro-1H-pyrido[3,4-b]indol-1-yl)-N-cyclobutylbenzenesulfonamide]: the pIC50 was 8.52 in the experiment on 786-O, 8.40 in the experiment on SJSA-1 and 5.34 in the experiment on A431.

On to `C#CC(=O)N1[C@@H](c2ccc(F)cc2)c2[nH]c3ccccc3c2C[C@@H]1C(=O)OC` [Compound 146, methyl (1S,3R)-1-(4-fluorophenyl)-2-propioloyl-2,3,4,9-tetrahydro-1H-pyrido[3,4-b]indole-3-carboxylate], for which the pIC50 in the experiment on 786-O was 7.64; in the experiment on SJSA-1, 7.52; with A431 it was 5.62.

As to `C#CCOc1ccc([C@H]2c3[nH]c4ccccc4c3C[C@H](C(=O)OC)N2C(=O)CCl)cc1` [Compound 147, methyl (1S,3R)-2-(2-chloroacetyl)-1-(4-(prop-2-yn-1-yloxy)phenyl)-2,3,4,9-tetrahydro-1H-pyrido[3,4-b]indole-3-carboxylate], the pIC50 in the experiment on 786-O was 7.31; in the experiment on SJSA-1 it was 6.80; in the experiment with A431, < 5.00.

For the molecule `C#CC(=O)N1[C@@H](c2ccc(S(=O)(=O)NC3CC3)cc2F)c2[nH]c3ccc(Cl)cc3c2C[C@@H]1C` [Compound 151], the pIC50 in the experiment on 786-O is 7.74; in the experiment on SJSA-1, 7.43; in the experiment with A431 it was 5.28.

Turning to `C[C@H]1Cc2c([nH]c3ccccc23)[C@@H](c2ccc(N3CCOCC3)nc2)N1C(=O)CCl` [Compound 157], the values for the pIC50 in the experiment with 786-O, in the experiment with SJSA-1 and with A431 were < 5.00, < 5.00 and 5.70, respectively.

As to `C[C@H]1Cc2c([nH]c3ccccc23)C(c2ccc(-n3ccnc3)cc2)N1C(=O)CCl` (stereo partly drawn) [Compound 163, 1-((3S)-1-(4-(1H-imidazol-1-yl)phenyl)-3-methyl-1,3,4,9-tetrahydro-2H-pyrido[3,4-b]indol-2-yl)-2-chloroethan-1-one], the pIC50 with 786-O is 5.19; in the experiment on SJSA-1 it was < 5.00; in the experiment on A431, < 5.00.

In the case of `C#CC(=O)N1[C@@H](c2ccc(S(=O)(=O)NC3CC3)cc2F)c2[nH]c3ccc(OC)cc3c2C[C@@H]1C` [Compound 165, N-cyclopropyl-3-fluoro-4-((1S,3S)-6-methoxy-3-methyl-2-propioloyl-2,3,4,9-tetrahydro-1H-pyrido[3,4-b]indol-1-yl)benzenesulfonamide], the IC50 with 786-O (setting [1]) was determined as 4.79 µM; in the experiment with 786-O (setting [2]), 0.047 µM; in the experiment with SJSA-1 (setting [3]), 3.77 µM; in the experiment with SJSA-1 (setting [4]), 0.119 µM. Further, the pIC50 is 7.33 with 786-O, 6.92 in the experiment with SJSA-1 and 5.46 in the experiment on A431.

Regarding `COC[C@H]1Cc2c([nH]c3ccccc23)[C@H](c2ccc(C(=O)NC3CC3)cc2F)N1C(=O)CCl` [Compound 166, 4-((1S,3R)-2-(2-chloroacetyl)-3-(methoxymethyl)-2,3,4,9-tetrahydro-1H-pyrido[3,4-b]indol-1-yl)-N-cyclopropyl-3-fluorobenzamide], the IC50 in the experiment with 786-O (setting [1]) was 9.52 µM; in the experiment on 786-O (setting [2]), 0.008 µM; with SJSA-1 (setting [3]), > 10 µM; in the experiment with SJSA-1 (setting [4]), 0.01 µM. For the same molecule, the results for the pIC50 in the experiment with 786-O, with SJSA-1 and in the experiment on A431 were 8.10, 8.00 and < 5.00, respectively.

As for `C#CC(=O)N1[C@@H](CCCC)Cc2c([nH]c3ccccc23)[C@@H]1c1ccc(S(=O)(=O)NC2CC2)cc1F` [Compound 167, 4-((1S,3S)-3-butyl-2-propioloyl-2,3,4,9-tetrahydro-1H-pyrido[3,4-b]indol-1-yl)-N-cyclopropyl-3-fluorobenzenesulfonamide], the IC50 with 786-O (setting [1]) stood at 2 µM; in the experiment with 786-O (setting [2]), 0.005 µM; in the experiment on SJSA-1 (setting [3]), 4.01 µM; in the experiment on SJSA-1 (setting [4]) it was 0.011 µM. Besides, the pIC50 with 786-O was 8.30; in the experiment on SJSA-1 it was 7.96; in the experiment with A431, 5.71.

With `C[C@H]1Cc2c([nH]c3ccccc23)[C@H](c2ccc3c(c2)CNC3=O)N1C(=O)CCl` [Compound 168, 5-((1S,3S)-2-(2-chloroacetyl)-3-methyl-2,3,4,9-tetrahydro-1H-pyrido[3,4-b]indol-1-yl)isoindolin-1-one], the IC50 in the experiment on 786-O (setting [1]) was 3.31 µM; in the experiment on 786-O (setting [2]), 0.487 µM; in the experiment with SJSA-1 (setting [3]) it was > 10 µM; in the experiment on SJSA-1 (setting [4]), 0.56 µM. The pIC50 is 6.31 with 786-O, 6.25 in the experiment on SJSA-1 and 5.29 with A431.

Take `C[C@H]1Cc2c([nH]c3ccccc23)[C@H](c2ccc(S(=O)(=O)N(C)C3CC3)cc2F)N1C(=O)CCl` [Compound 170]: the IC50 in the experiment with 786-O (setting [1]) came to 8.09 µM; with 786-O (setting [2]), 0.058 µM; in the experiment on SJSA-1 (setting [3]) it was 9.11 µM; in the experiment on SJSA-1 (setting [4]), 0.062 µM. Further, the values for the pIC50 in the experiment on 786-O, with SJSA-1 and in the experiment with A431 were 7.24, 7.21 and 5.38, respectively.

On to `C[C@H]1Cc2c([nH]c3ccc(Cl)cc23)[C@H](c2ccc(S(=O)(=O)NC3CC3)cc2F)N1C(=O)CCl` [Compound 172, 4-((1S,3S)-6-chloro-2-(2-chloroacetyl)-3-methyl-2,3,4,9-tetrahydro-1H-pyrido[3,4-b]indol-1-yl)-N-cyclopropyl-3-fluorobenzenesulfonamide], for which the IC50 in the experiment with 786-O (setting [1]) turned out to be 6.76 µM; in the experiment with 786-O (setting [2]) it was 0.023 µM; in the experiment on SJSA-1 (setting [3]), 4.1 µM; with SJSA-1 (setting [4]), 0.023 µM. Further, the pIC50 is 7.64 in the experiment with 786-O, 7.64 with SJSA-1 and 5.68 in the experiment with A431.

On to `COc1ccc2[nH]c3c(c2c1)C[C@H](C)N(C(=O)CCl)[C@H]3c1ccc(S(=O)(=O)NC2CC2)cc1F` [Compound 173, 4-((3S)-2-(2-chloroacetyl)-6-methoxy-3-methyl-2,3,4,9-tetrahydro-1H-pyrido[3,4-b]indol-1-yl)-N-cyclopropyl-3-fluorobenzenesulfonamide], for which the IC50 is 3.95 µM with 786-O (setting [1]), 0.023 µM with 786-O (setting [2]), 3.98 µM in the experiment with SJSA-1 (setting [3]) and 0.034 µM with SJSA-1 (setting [4]). For the same molecule, the figures for the pIC50 in the experiment with 786-O, in the experiment on SJSA-1 and with A431 were 7.64, 7.47 and 5.44, respectively.

Take `C[C@H]1Cc2c([nH]c3ccccc23)[C@H](c2ccc(N3CCS(=O)(=O)CC3)cc2)N1C(=O)CCl` [Compound 210, 2-chloro-1-((1S,3S)-1-(4-(1,1-dioxidothiomorpholino)phenyl)-3-methyl-1,3,4,9-tetrahydro-2H-pyrido[3,4-b]indol-2-yl)ethan-1-one]: the IC50 in the experiment with 786-O (setting [1]) was > 10 µM; in the experiment with 786-O (setting [2]) it was 0.062 µM; in the experiment on SJSA-1 (setting [3]) it was 9.55 µM; in the experiment with SJSA-1 (setting [4]), 0.081 µM. The pIC50 is 7.21 with 786-O, 7.09 in the experiment on SJSA-1 and 5.81 in the experiment with A431.

Regarding `C[C@H]1Cc2c([nH]c3ccccc23)[C@H](c2ccc(N3CC4(COC4)C3)cc2)N1C(=O)CCl` [Compound 213, 1-((1S,3S)-1-(4-(2-oxa-6-azaspiro[3.3]heptan-6-yl)phenyl)-3-methyl-1,3,4,9-tetrahydro-2H-pyrido[3,4-b]indol-2-yl)-2-chloroethan-1-one], the IC50 is 5.62 µM in the experiment with 786-O (setting [1]), 0.066 µM with 786-O (setting [2]), 4.79 µM in the experiment on SJSA-1 (setting [3]) and 0.066 µM with SJSA-1 (setting [4]). Moreover, the pIC50 with 786-O is 7.18; with SJSA-1 it was 7.18; in the experiment on A431, 5.73.
